Values after ≈ are worked out from the molar mass of the structure shown.
Experiments:
Type in all cases: physicochemical
[1] = Thermal analysis (DSC): enthalpy and extrapolated onset temperature at endothermic peak; conditions: for Endothermic peak Enthalpy / Endothermic peak Extrapolated onset temperature: crystal forms I and II 10° C./min, aluminum open pan, crystal form III 5° C./min, aluminum closed pan
Source text: This test aims at the measurement of the enthalpy and extrapolated onset temperature at an endothermic peak on the Differential Scanning Calorimetry (DSC) measurement curve. These values are among the indices of the stability of the above-mentioned crystal form I, crystal form II and crystal form III, and can be used as an index to specify the crystal form. Crystal form I and crystal form II were subjected to measurement using a Differential Scanning Calorimetry (DSC) measurement apparatus (DSC8240, manufactured by Rigaku Corporation), under atmosphere, measurement sample 5±1 mg, temperature rise rate: 10° C./min, aluminum open pan, and alumina oxide as a reference. The enthalpy and extrapolated onset temperature at an endothermic peak on the obtained DSC curve were determined. Crystal form III was subjected to measurement using a DSC measurement apparatus (DSC8240, manufactured by Rigaku Corporation), under atmosphere, measurement sample 5.0+0.5 mg, temperature rise rate: 5° C./min, aluminum closed pan, and alumina oxide as a reference. The enthalpy and extrapolated onset temperature at an endothermic peak on the obtained DSC curve were determined.

[2] = Stability test under preservation conditions (appearance, HPLC purity, XRD, DSC); conditions: for Stability under various preservation conditions (overall evaluation): all preservation conditions; for Purity: HPLC
Description: A sample was fixed to an aluminum cell, and the measurement was performed using an X-ray powder diffractometer (RINT 2000/PC Ultima^+, manufactured by Rigaku Corporation, X-ray source: Cu-Kα1 ray, tube voltage: 40 kV, tube electric current: […], scan speed: 5° per min, step width: 0.02°, diffraction angle: 5-40°), based on which the diffraction patterns were obtained. Crystal form I and crystal form II were subjected to measurement using a Differential Scanning Calorimetry (DSC) measurement apparatus (DSC8240, manufactured by Rigaku Corporation), under atmosphere, measurement sample 5±1 mg, temperature rise rate: 10° C./min, aluminum open pan, and alumina oxide as a reference. The enthalpy and extrapolated onset temperature at an endothermic peak on the obtained DSC curve were determined. Crystal form III was subjected to measurement using a DSC measurement apparatus (DSC8240, manufactured by Rigaku Corporation), under atmosphere, measurement sample 5.0+0.5 mg, temperature rise rate: 5° C./min, aluminum closed pan, and alumina oxide as a reference. The enthalpy and extrapolated onset temperature at an endothermic peak on the obtained DSC curve were determined. Each sample (crystal form I and crystal form II, ca. 10 mg) was dissolved in acetonitrile to make an amount of 10 mL and used as a sample solution. This solution ([…]) was applied to high performance liquid chromatography (HPLC) under the following conditions. The peak area of each sample solution was measured by automatic integration, and the purity was determined by the following formula. The purity is shown in the Tables 5 and 6 below. • Detector: UV absorptiometer (wavelength: 259 nm) • Column: CAPCELL PAK MG (inner diameter […], length 15 cm, particle size 5 μm, manufactured by Shiseido Co., Ltd. • Column temperature: constant temperature around 40° C. • Mobile phase A: trifluoroacetic acid solution (1:1000) • Mobile phase B: solution of trifluoroacetic acid in acetonitrile (1:1000) • Gradient program: As shown in the following Table 2, the mixing ratio of mobile phase A and mobile phase B is changed to control concentration gradient. A sample (crystal form III, ca. 50 mg) was dissolved in a mixture (4:1) of mobile phase B and mobile phase A to make an amount of 50 mL, which was used as a sample solution. This solution (1 mL) was precisely measured and a mixture (4:1) of mobile phase B and mobile phase A was added to precisely make an amount of 100 mL, which was used as a standard solution. The sample solution and standard solution ([…]) was applied to high performance liquid chromatography (HPLC) under the following conditions. The peak area of each solution was measured by automatic integration, and the purity was determined by the following formula. The purity is shown in the Table 7 below. • Detector: UV absorptiometer (wavelength: 259 nm) • Column: Waters XTerra MC C18 ([…], manufactured by Waters) • Column temperature: constant temperature around 40° C. • Mobile phase A: phosphoric acid is added to dipotassium hydrogenphosphate solution (1>1149) to adjust pH to 7.0 • Mobile phase B: acetonitrile • Gradient program: As shown in the following Table 3, the mixing ratio of mobile phase A and mobile phase B is changed to control concentration gradient. A stability test of each sample was performed under the following preservation conditions. The results of crystal form I are shown in Table 5, the results of crystal form II are shown in Table 6, and the results of crystal form III are shown in Table 7.

[3] = Solubility test in various test solutions and pHs
Description: This test aims at measurement of solubility of the crystal in various test solutions and under various pHs. The solubility is one of the indices of the stability of the above-mentioned crystal form I, crystal form II and crystal form III and can be used also as a reference indices of absorbability of crystal form by living organisms. Each sample (crystal form I type I, crystal form II and crystal form III, ca. 10 mg) was placed in a 10 mL centrifuge tube together with the following test solution (5 mL) and shaken with a shaker (SR-1M; manufactured by […] Co., Ltd.) for 14 hours. After shaking, the mixture was centrifuged (3000 rpm, 20 min) and the supernatant was filtered through 0.2 μm pore size-13 mm diameter polytetrafluoroethylene disk filter (Millex-LG; manufactured by Millipore Corporation). The measurement was performed by high performance liquid chromatography (HPLC).

[4] = condition 2: 80° C., closed container, preserved for 3 days
[5] = condition 3: 80° C., open container, preserved for 3 days
[6] = condition 4: 60° C., closed container, preserved for 3 weeks
[7] = condition 5: 60° C., open container, preserved for 3 weeks
[8] = condition 6: 60° C./75% R.H., closed container, preserved for 3 weeks
[9] = Japanese Pharmacopoeia 1st fluid, pH 1.2, shaken 14 hours
[10] = Japanese Pharmacopoeia 2nd fluid, pH 6.8, shaken 14 hours
[11] = McIlvaine buffer pH 2.2, shaken 14 hours
[12] = McIlvaine buffer pH 4, shaken 14 hours
[13] = McIlvaine buffer pH 5, shaken 14 hours
[14] = McIlvaine buffer pH 6.8, shaken 14 hours
[15] = McIlvaine buffer pH 8, shaken 14 hours
[16] = Purified water, shaken 14 hours
[17] = condition 6: 60° C./75% R.H., open container, preserved for 3 weeks

SMILES	Endothermic peak Enthalpy [1]	Endothermic peak Extrapolated onset temperature [1]	Stability under various preservation conditions (overall evaluation) [2]	Purity ([2]; condition 1: Initial)	Appearance [2, 4]	XRD (X-ray powder diffraction pattern vs initial) [2, 4]	Purity [2, 4]	Appearance [2, 5]	XRD (X-ray powder diffraction pattern vs initial) [2, 5]	Purity [2, 5]	Appearance [2, 6]	XRD (X-ray powder diffraction pattern vs initial) [2, 6]	Purity [2, 6]	Appearance [2, 7]	XRD (X-ray powder diffraction pattern vs initial) [2, 7]	Purity [2, 7]	Solubility [3, 9]	Solubility [3, 10]	Solubility [3, 11]	Solubility [3, 12]	other results
COc1cc2c(cc1Cc1cccc(Cl)c1F)c(=O)c(C(=O)O)cn2[C@H](CO)C(C)C [Crystal form III, 6-(3-chloro-2-fluorobenzyl)-1-[(S)-1-hydroxymethyl-2-methylpropyl]-7-methoxy-4-oxo-1,4-dihydroquinoline-3-carboxylic acid]	81.404 J/g	162.1 °C	extremely stable	98.71%	No change	No change	98.68%	No change	No change	98.69%	No change	No change	98.67%	No change	No change	98.66%	<0.1 µg/mL	2.4 µg/mL (≈ 5.36 µM)	<0.1 µg/mL	<0.1 µg/mL	Stability among three crystal forms judged from enthalpy and extrapolated onset temperature [1]: most stable form; Appearance [2, 8]: No change; XRD (X-ray powder diffraction pattern vs initial) [2, 8]: No change; Purity [2, 8]: 98.65%; Solubility [3, 13]: <0.1 µg/mL; Solubility ([3]; McIlvaine buffer pH 6, shaken 14 hours): 0.7 µg/mL (≈ 1.56 µM); Solubility [3, 14]: 0.7 µg/mL (≈ 1.56 µM); Solubility [3, 15]: 23 µg/mL (≈ 51.4 µM); Solubility [3, 16]: <0.1 µg/mL
COc1cc2c(cc1Cc1cccc(Cl)c1F)c(=O)c(C(=O)O)cn2[C@H](CO)C(C)C [Crystal form II, 6-(3-chloro-2-fluorobenzyl)-1-[(S)-1-hydroxymethyl-2-methylpropyl]-7-methoxy-4-oxo-1,4-dihydroquinoline-3-carboxylic acid]	53.542 J/g	151.2 °C	extremely stable	98.9%	No change	No change	98.9%	No change	No change	98.8%	No change	No change	98.9%	No change	No change	98.8%	0.9 µg/mL (≈ 2.01 µM)	5.8 µg/mL (≈ 12.9 µM)	1.9 µg/mL (≈ 4.24 µM)	0.8 µg/mL (≈ 1.79 µM)	Appearance [2, 17]: No change; XRD (X-ray powder diffraction pattern vs initial) [2, 17]: No change; Purity [2, 17]: 98.9%; Solubility [3, 13]: 0.4 µg/mL (≈ 0.893 µM); Solubility [3, 14]: 6.3 µg/mL (≈ 14.1 µM); Solubility [3, 15]: 84 µg/mL (≈ 188 µM); solubility at 14 h ([3]; McIlvaine buffer, pH 6, aqueous buffer, thermodynamic from solid, McIlvaine buffer pH 6, shaken 14 hours): 1 µg/mL (≈ 2.23 µM); Solubility [3, 16]: 0.5 µg/mL (≈ 1.12 µM); Solubility compared between crystal forms ([3]; all test solutions of Table 4): higher solubility than crystal form III
COc1cc2c(cc1Cc1cccc(Cl)c1F)c(=O)c(C(=O)O)cn2[C@H](CO)C(C)C [Crystal form I, 6-(3-chloro-2-fluorobenzyl)-1-[(S)-1-hydroxymethyl-2-methylpropyl]-7-methoxy-4-oxo-1,4-dihydroquinoline-3-carboxylic acid]	51.080 J/g	150.3 °C	unstable	99.1%	No change	No change	99.1%	No change	a part of the sample showed crystal transition to crystal form II	99.1%	No change	No change	99.1%	No change	a part of the sample showed crystal transition to crystal form II	99.1%					Appearance [2, 17]: No change; XRD (X-ray powder diffraction pattern vs initial) [2, 17]: No change; Purity [2, 17]: 99.1%
